Measured values taken from ChEMBL document CHEMBL5338753, “Stapled Peptides as Direct Inhibitors of Nrf2-sMAF Transcription Factors” (J Med Chem, 2023).
Active and inactive are the calls of the source. The rule behind the calls is not given here. Positions of bridges follow the written chain, without caps; N, C: chain ends. Non-standard residues stand in square brackets, D forms with d. Residues, ends and D or L forms follow the SMILES beside them. R5 = C=CCCC[C@@](C)(N)C(=O)O

Tests used:
A549 [1] = assay: Antiproliferative activity against human A549 cells assessed as cell death at 50 uM incubated for 72 hrs by MTT assay relative to control; assay type: functional
A549 [2] = assay: Synergistic antiproliferative activity against human A549 cells assessed as combination index at 12.5 uM incubated for 72 hrs in presence of 12 uM cisplatin by Chou-Talalay method; assay type: functional
A549 [3] = assay: Synergistic antiproliferative activity against human A549 cells assessed as cell death at 3.125 uM incubated for 72 hrs in presence of 12 uM cisplatin by MTT assay (reference value: 66%); assay type: functional
A549 [4] = assay: Synergistic antiproliferative activity against human A549 cells assessed as combination index at 3.125 uM incubated for 72 hrs in presence of 6 uM cisplatin by Chou-Talalay method; assay type: functional
A549 [5] = assay: Antiproliferative activity against human A549 cells assessed as cell death at 1.563 uM incubated for 72 hrs by MTT assay relative to control; assay type: functional
NRF2-MAFG (Homo sapiens) = NRF2-MAFG (Homo sapiens) (UniProt Q16236+O15525); assay: Inhibition of human Nrf2/MafG heterodimerization expressed in Escherichia coli Rosetta (DE3) by Split-luciferase assay; settings: dose 1.56-100 µM
A549 [6] = assay: Synergistic antiproliferative activity against human A549 cells assessed as combination index at 50 uM incubated for 72 hrs in presence of 6 uM cisplatin by Chou-Talalay method; assay type: functional
[7] = target: T1, Nuclear factor erythroid 2-related factor 2 (Homo sapiens) (UniProt Q16236); assay: Inhibition of Nrf2 transcriptional activity in human A549 cells assessed as reduction in glutathione level at 50 to 100 uM incubated for 24 hrs by GSH-Glo glutathione assay; assay type: cell-based; settings: dose 50-100 µM
T1 sequence (whole entry): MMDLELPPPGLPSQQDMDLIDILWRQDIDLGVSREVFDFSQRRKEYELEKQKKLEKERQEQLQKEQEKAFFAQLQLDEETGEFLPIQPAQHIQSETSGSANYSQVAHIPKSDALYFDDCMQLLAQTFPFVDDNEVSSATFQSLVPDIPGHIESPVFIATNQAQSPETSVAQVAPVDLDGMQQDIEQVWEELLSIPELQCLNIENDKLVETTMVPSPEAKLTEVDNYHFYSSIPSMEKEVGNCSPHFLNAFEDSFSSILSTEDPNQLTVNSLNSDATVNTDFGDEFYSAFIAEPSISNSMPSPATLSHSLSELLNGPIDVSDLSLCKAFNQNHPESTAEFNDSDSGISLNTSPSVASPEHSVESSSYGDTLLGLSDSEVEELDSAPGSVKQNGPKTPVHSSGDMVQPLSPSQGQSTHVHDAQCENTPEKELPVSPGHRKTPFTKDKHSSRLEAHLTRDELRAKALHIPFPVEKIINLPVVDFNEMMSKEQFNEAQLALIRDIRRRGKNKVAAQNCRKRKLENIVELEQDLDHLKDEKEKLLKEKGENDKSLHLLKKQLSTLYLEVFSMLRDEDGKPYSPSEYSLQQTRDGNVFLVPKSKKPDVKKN

A549 [8] = assay: Antiproliferative activity against human A549 cells assessed as cell death at 3.125 uM incubated for 72 hrs by MTT assay relative to control; assay type: functional
A549 [9] = assay: Downregulation of ABCC1 mRNA level in human A549 cells at 50 uM incubated for 72 hrs by qPCR assay; assay type: functional, cell-based
A549 [10] = assay: Antiproliferative activity against human A549 cells assessed as cell death at 6.25 uM incubated for 72 hrs by MTT assay relative to control; assay type: functional
A549 [11] = assay: Synergistic antiproliferative activity against human A549 cells assessed as cell death at 6.25 uM incubated for 72 hrs in presence of 6 uM cisplatin by MTT assay (reference value: 46%); assay type: functional
A549 [12] = assay: Synergistic antiproliferative activity against human A549 cells assessed as cell death at 1.563 uM incubated for 72 hrs in presence of 12 uM cisplatin by MTT assay (reference value: 66%); assay type: functional
A549 [13] = assay: Synergistic antiproliferative activity against human A549 cells assessed as cell death at 6.25 uM incubated for 72 hrs in presence of 12 uM cisplatin by MTT assay (reference value: 66%); assay type: functional
A549 [14] = assay: Synergistic antiproliferative activity against human A549 cells assessed as combination index at 6.25 uM incubated for 72 hrs in presence of 12 uM cisplatin by Chou-Talalay method; assay type: functional
A549 [15] = assay: Synergistic antiproliferative activity against human A549 cells assessed as cell death at 50 uM incubated for 72 hrs in presence of 6 uM cisplatin by MTT assay (reference value: 46%); assay type: functional
A549 [16] = assay: Synergistic antiproliferative activity against human A549 cells assessed as cell death at 25 uM incubated for 72 hrs in presence of 12 uM cisplatin by MTT assay (reference value: 66%); assay type: functional

Work on `CC[C@H](C)[C@H](NC(C)=O)C(=O)N[C@H](C(=O)N[C@@H](CCC(=O)O)C(=O)N[C@@H](CC(C)C)C(=O)N[C@@H](CCC(=O)O)C(=O)N[C@]1(C)CCC/C=C\CCC[C@](C)(C(=O)N[C@@H](CC(C)C)C(=O)N[C@@H](CCCCN)C(=O)N[C@@H](CC(=O)O)C(=O)N[C@@H](CCC(=O)O)C(=O)N[C@@H](CCCCN)C(=O)N[C@@H](CCC(=O)O)C(N)=O)NC(=O)[C@H](CC(=O)O)NC(=O)[C@H](CC(C)C)NC(=O)[C@H](CC(=O)O)NC1=O)C(C)C` (Ac-IVELE[R5]DLD[R5]LKDEKE-NH2; staple (Z) 6-10) yielded an Activity (A549 [1]) of 34%, a CI (A549 [2]) of 0.51 and an Activity (A549 [3]) of 71%. For the same molecule, the CI (A549 [4]) was 0.84, the Activity (A549 [5]) was 4% and the inhibition (NRF2-MAFG (Homo sapiens)) was “Dose-Dependent Effect”. The CI (A549 [6]) was 0.42, the inhibition [7] was “Active” and the Activity (A549 [8]) was 12%. For the same molecule, the Activity (A549 [9]) was “Active”, the Activity (A549 [10]) was 17% and the Activity (A549 [11]) was 59%. It also gave an Activity (A549 [12]) of 67%, an Activity (A549 [13]) of 79% and a CI (A549 [14]) of 0.57. The Activity (A549 [15]) was 74% and the Activity (A549 [16]) was 87%.
